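Grown in 96-well plates, cells were treated for 48 hours with each compound at five concentrations. Insufficient inhibition: endpoint recorded as highest concentration tested. GI50 is the concentration that inhibits growth by half. TGI is the concentration that stops growth completely.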
What was measured:
Experiment in all cases: NCI tumour cell line growth inhibition, 48 h
[1] = test system: ACHN renal
[2] = test system: COLO 205 colon
[3] = test system: EKVX NSCLC
[4] = test system: KM12 colon
[5] = test system: LOX IMVI melanoma
[6] = test system: RPMI-8226 leukemia
[7] = test system: SF-539 CNS
[8] = test system: SNB-75 CNS
[9] = test system: U251 CNS
[10] = test system: NCI/ADR-RES ovarian

Row | SMILES | TGI [1] | TGI [2] | TGI [3] | TGI [4] | TGI [5] | TGI [6] | TGI [7] | TGI [8] | TGI [9] | GI50 [1] | GI50 [2] | GI50 [3] | GI50 [4] | GI50 [5] | GI50 [6] | GI50 [7] | GI50 [8] | GI50 [9] | GI50 [10] | TGI [10]
1 | COC(=O)/C(C#N)=C1\N=NNN1CCCN1CCOCC1 | > 100 µM | > 100 µM | > 100 µM | > 100 µM | > 100 µM | > 100 µM | > 100 µM | > 100 µM | > 100 µM |  |  |  |  |  |  |  |  |  |  | 
2 | COc1cc2ccn3c4cc(OC)c(OC)cc4cc3c2cc1OC | > 100 µM | > 100 µM | > 100 µM | > 100 µM |  | > 100 µM |  | > 100 µM | > 100 µM |  |  |  |  |  |  |  |  |  |  | 
3 | S=C(Nc1ccccc1)Nc1[nH]c(=S)sc1-c1nc2ccccc2[nH]1 | > 100 µM | > 100 µM | > 100 µM | > 100 µM | > 100 µM | > 100 µM | 74.3 µM | 78.5 µM | > 100 µM |  |  |  |  |  |  |  |  |  |  | 
4 | CC1CCC(O)C(C(O)CC2CC(=O)N(C)C(=O)C2)C1 (stereo not given) | > 100 µM | > 100 µM | > 100 µM | > 100 µM | > 100 µM | > 100 µM | > 100 µM | > 100 µM | > 100 µM |  |  |  |  |  |  |  |  |  |  | 
5 | CC1OC(=O)N(CCCC=C2SCCCS2)C1=O (stereo not given) | > 100 µM | > 100 µM | > 100 µM | > 100 µM | > 100 µM | > 100 µM | > 100 µM | > 100 µM | > 100 µM |  |  |  |  |  |  |  |  |  |  | 
6 | CC(C)OP(=O)(CP(=O)(OC(C)C)OC(C)C)OC(C)C.[CH3][Sn]([Br])([Br])[Br] | > 100 µM | > 100 µM | > 100 µM | > 100 µM | > 100 µM | > 100 µM | > 100 µM | > 100 µM | > 100 µM | > 100 µM | > 100 µM | > 100 µM | > 100 µM | > 100 µM | > 100 µM | > 100 µM | > 100 µM | > 100 µM |  | 
7 | COc1cc2c3c(c1OC)-c1ccccc1C(C(OC(C)=O)c1ccccc1)C3N(C)CC2 (stereo not given) | > 100 µM | > 100 µM | > 100 µM | > 100 µM | > 100 µM | 80.7 µM | > 100 µM | > 100 µM | > 100 µM |  |  |  |  |  |  |  |  |  |  | 
8 | O=C(O)c1cc(Cl)cc(NC(=O)C(Cl)Cl)c1Cl | > 100 µM | > 100 µM | > 100 µM | > 100 µM | > 100 µM | > 100 µM | > 100 µM | > 100 µM | > 100 µM |  |  |  |  |  |  |  |  |  |  | 
9 | Cc1nnc([S-])s1.[Au+].c1ccc([PH+](c2ccccc2)c2ccccc2)cc1 | 3.26 µM |  |  | 3.41 µM | 2.82 µM | 5.31 µM | 3 µM | 2.87 µM |  | 1.86 µM |  |  | 1.83 µM | 1.44 µM | 1.8 µM | 1.63 µM | 1.53 µM |  |  | 
10 | COC(=O)c1cc(Nc2ccc(O)c3c2C(=O)c2c([N+](=O)[O-])ccc(O)c2C3=O)cc(C(=O)OC)c1 | > 100 µM | 5.56 µM |  | > 100 µM | > 100 µM | > 100 µM | > 100 µM |  | > 100 µM | 21.3 µM | 2.38 µM |  | 34.5 µM | 6.39 µM | 3.84 µM | 60 µM |  | 25.7 µM | 26.8 µM | > 100 µM
11 | O=c1oc(-c2ccc(O)c(O)c2)cc2cc(O)cc(O)c12 | > 100 µM | > 100 µM | 91.3 µM | > 100 µM | > 100 µM | > 100 µM | 91.5 µM |  | > 100 µM | 45.3 µM | 41.8 µM | 28.4 µM | 28.6 µM | 60.8 µM | 20.8 µM | 26.7 µM |  | 48.5 µM | 33.5 µM | > 100 µM
12 | Cc1ccc(C2=Nc3c(N)ncnc3NC(c3cccc(Nc4ccnc5cc(C(F)(F)F)ccc45)c3)C2)cc1 (stereo not given) | > 100 µM | 7.03 µM | > 100 µM | 13.3 µM | 6.13 µM | 6.05 µM | 9.26 µM |  | 15.1 µM | 4.69 µM | 2.64 µM | 3.95 µM | 3.26 µM | 2.34 µM | 2.17 µM | 2.68 µM |  | 3.73 µM | 2.96 µM | 10.2 µM
13 | C/C(=N\NS(=O)(=O)c1ccc(C)cc1)c1ccc[n+]([O-])n1 | > 100 µM |  | > 100 µM | > 100 µM |  | > 100 µM | > 100 µM | > 100 µM | > 100 µM |  |  |  |  |  |  |  |  |  |  | 
14 | O=C(/C=C/N1CCN(c2cccc(C(F)(F)F)c2)CC1)c1ccc(Cl)cc1Cl | 46.9 µM | > 100 µM | 65.4 µM | 75.9 µM | 47.1 µM | 70.8 µM | 51.3 µM |  | 59.8 µM | 23.4 µM | 36.2 µM | 27.9 µM | 28.1 µM | 22.7 µM | 25.9 µM | 24.8 µM |  | 26.1 µM | 21.7 µM | 50.8 µM
15 | CCN(CC)CCOc1ccc(/C=C2\C[C@H]3[C@@H]4CC=C5C[C@@H](OC(C)=O)CC[C@]5(C)[C@H]4CC[C@]3(C)[C@H]2OC(C)=O)cc1OC | 19.2 µM | > 50 µM | 14.5 µM | 21.4 µM | > 50 µM | 24.2 µM | 16 µM |  | 26.2 µM | 9.19 µM | 19.6 µM | 6.84 µM | 9.65 µM | 18.1 µM | 1.4 µM | 8.59 µM |  | 10.3 µM | 11.1 µM | 22.3 µM
16 | CC1=C(C#N)C(N)=C2C(C)=C(C#N)C(N)=C12 |  | > 100 µM | > 100 µM | > 100 µM | > 100 µM | > 100 µM | > 100 µM | > 100 µM | > 100 µM |  |  |  |  |  |  |  |  |  |  | 
17 | Cc1nnc2n1N=C(CC(=O)c1ccc(O)cc1O)CN2N | > 100 µM | 35.8 µM | > 100 µM | > 100 µM | > 100 µM |  | > 100 µM |  | > 100 µM |  |  |  |  |  |  |  |  |  |  | 
18 | Cc1cc(N(CCC#N)S(=O)(=O)c2ccccc2)ccc1C=O | > 100 µM | > 100 µM | > 100 µM | > 100 µM | > 100 µM | > 100 µM | > 100 µM | > 100 µM | > 100 µM |  |  |  |  |  |  |  |  |  |  | 

— PubChem BioAssay (NCI)
